Read-outs that look alike come from different tables or passages of the source.
Tested on: C. elegans
Assay: microbe, parasite or virus in culture
Details: Caenorhabditis elegans
[1] = 0 h, read-out: Percentage of motility inhibition 0 h
[2] = 24 h, read-out: Percentage of motility inhibition 24 h
[3] = 0 h, read-out: Percentage of motility inhibition 0 h, Table S2, C. elegans SS assay, 110 μM, 0 h, averages of 4 data points
[4] = 24 h, read-out: Percentage of motility inhibition 24 h, Table S2, C. elegans SS assay, 110 μM, 24 h, averages of 4 data points

SMILES | inhibition at 110 µM [1] [%] | inhibition at 110 µM [2] [%] | inhibition at 110 µM [3] [%] | inhibition at 110 µM [4] [%]
O=C(O)c1ccccc1 [Benzoic acid] | 3 | 6 |  | 
C[C@@]12C[C@@]3(O)O[C@@H](O1)[C@]1(COC(=O)c4ccccc4)[C@H]3C[C@@]12O[C@@H]1O[C@H](COC(=O)c2ccccc2)[C@@H](O)[C@H](O)[C@H]1O [Benzoylpaeoniflorin] |  |  | 10 | 0
OCc1ccccc1 [Benzyl alcohol] |  |  | 2 | 4
O=C(OCc1ccccc1)c1ccccc1 [Benzyl benzoate] |  |  | 35 | 36
COc1c(O)cc2c(c1O)[C@@H]1O[C@H](CO)[C@@H](O)[C@H](O)[C@H]1OC2=O [Bergenin] |  |  | 21 | 10
C=C1CCC[C@]2(C)CC[C@@H](C(C)(C)O)C[C@@H]12 [Beta-Eudesmol] |  |  | 0 | 6
C=C(C)[C@@H]1CC[C@]2(COC(C)=O)CC[C@]3(C)[C@H](CC[C@@H]4[C@@]5(C)CC[C@H](OC(C)=O)C(C)(C)[C@@H]5CC[C@]43C)[C@@H]12 [Betulin diacetate] |  |  | 11 | 0
C=C(C)[C@@H]1CC[C@]2(CO)CC[C@]3(C)[C@H](CC[C@@H]4[C@@]5(C)CC[C@H](O)C(C)(C)[C@@H]5CC[C@]43C)[C@@H]12 [Betulin] |  |  | 0 | 0
C=C(C)[C@@H]1CC[C@]2(C(=O)O)CC[C@]3(C)[C@H](CC[C@@H]4[C@@]5(C)CC[C@H](OC(=O)CC(C)(C)C(=O)O)C(C)(C)[C@@H]5CC[C@]43C)[C@@H]12 [Bevirimat] |  |  | 3 | 30
C[C@@H](O)[C@H]1C(=O)N2C(C(=O)[O-])=C(SC3Cn4cnc[n+]4C3)[C@H](C)[C@H]12 (stereo partly drawn) [Biapenem] |  |  | 18 | 3
CN1CCc2cc3c(cc2[C@H]1[C@@H]1OC(=O)c2c1ccc1c2OCO1)OCO3 [Bicuculline] |  |  | 0 | 8
COC(=O)c1cc(OC)c2c(c1-c1c(CO)cc(OC)c3c1OCO3)OCO2 [Bicyclol] |  |  | 23 | 4
c1ccc(-c2ccc(C(c3ccccc3)n3ccnc3)cc2)cc1 (stereo not drawn) [Bifonazole] |  |  | 25 | 31
CC(C)(C)[C@]1(O)CC2OC(=O)CC23C(=O)OC2OC(=O)[C@H](O)C231 (stereo partly drawn) [Bilobalide] |  |  | 0 | 23
O=C(O)CCCC[C@@H]1SC[C@@H]2NC(=O)N[C@@H]21 [Biotin] | 14 | 12 |  | 
CC(C)=C/C=C1\O[C@@H]2CC(C)=CC(=O)[C@@H]2[C@]1(C)O [Bisabolangelone] |  |  | 18 | 13
Oc1c(Cl)cc(Cl)cc1Sc1cc(Cl)cc(Cl)c1O [Bithionol] |  |  | 40 | 40
CC(C)(C)NC(=O)N[C@H](C(=O)N1C[C@H]2[C@@H]([C@H]1C(=O)NC(CC1CCC1)C(=O)C(N)=O)C2(C)C)C(C)(C)C (stereo partly drawn) [Boceprevir] |  |  | 28 | 39
COc1cc2c(cc1O)C[C@H]1c3c(cc(O)c(OC)c3-2)CCN1C [Boldine] |  |  | 0 | 0
O=C1N[C@@H](Cc2c[nH]c3ccccc23)C(=O)N2CCC[C@@H]12 [Brevianamide F] | 31 | 18 |  | 
C/C=C(/C)C(=O)O[C@H]1[C@@H]2[C@H](C)C(=O)O[C@@H]2C[C@@H](C)[C@@H]2C=CC(=O)[C@]21C [Brevilin A] | 0 | 0 |  | 
O=c1[nH]c(=O)n([C@H]2C[C@H](O)[C@@H](CO)O2)cc1/C=C/Br [Brivudine] | 6 | 14 |  | 
O=[N+]([O-])C(Br)(CO)CO [Bronopol] |  |  | 19 | 24
Cc1ccc2c(Br)cc(Br)c(OC(=O)c3ccccc3)c2n1 [Broxaldine] |  |  | 26 | 0

Reference: PMC11855827, “High-Throughput Screening of Five Compound Libraries for Anthelmintic Activity and Toxicity Leads to the Discovery of Two Flavonoid Compounds” (International Journal of Molecular Sciences, 2025)
